In article PMC9645382 (Drug development research, 2019) one finds IC50 data, which are given here for 18 compounds.

Structures are written as SMILES.

The assay has as its target T1, human neutrophil elastase (HNE) (Homo sapiens, UniProt P08246).
T1 sequence (P08246 30-267): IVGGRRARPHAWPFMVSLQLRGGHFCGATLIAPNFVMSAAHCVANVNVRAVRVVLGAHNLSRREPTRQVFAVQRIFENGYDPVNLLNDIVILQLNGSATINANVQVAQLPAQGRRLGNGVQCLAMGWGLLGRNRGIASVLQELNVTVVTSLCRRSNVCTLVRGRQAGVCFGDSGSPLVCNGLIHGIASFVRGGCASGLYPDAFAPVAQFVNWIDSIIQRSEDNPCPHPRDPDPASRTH
The assay is described as follows: HNE inhibition assay. The assay is classed as biochemical.

`O=C(C1CC1)n1cc(-c2ccccc2)c(=O)o1` [Compound 3a, 2-(Cyclopropanecarbonyl)-4-phenylisoxazol-5(2H)-one] showed an IC50 of 16 ± 5 nM. In the case of `Cc1ccc(-c2cn(C(=O)C3CC3)oc2=O)cc1` [Compound 3b, 2-(Cyclopropanecarbonyl)-4-(p-tolyl)isoxazol-5(2H)-one] it was 26 ± 4 nM; in that of `Cc1cccc(-c2cn(C(=O)C3CC3)oc2=O)c1` [Compound 3c, 2-(Cyclopropanecarbonyl)-4-(m-tolyl)isoxazol-5(2H)-one], 22 ± 5 nM; in that of `Cc1ccccc1-c1cn(C(=O)C2CC2)oc1=O` [Compound 3d, 2-(Cyclopropanecarbonyl)-4-(o-tolyl)isoxazol-5(2H)-one], 39 ± 11 nM. Under `O=C(C1CC1)n1cc(-c2ccc(Br)cc2)c(=O)o1` [Compound 3e, 4-(4-Bromophenyl)-2-(cyclopropanecarbonyl)isoxazol-5(2H)-one] stands 31 ± 3 nM. In the case of `O=C(C1CC1)n1cc(-c2ccc(Cl)cc2)c(=O)o1` [Compound 3f, 4-(4-Chlorophenyl)-2-(cyclopropanecarbonyl)isoxazol-5(2H)-one] it was 42 ± 8 nM; in that of `COc1ccc(-c2cn(C(=O)C3CC3)oc2=O)cc1` [Compound 3g, 2-(Cyclopropanecarbonyl)-4-(4-methoxyphenyl)isoxazol-5(2H)-one], 11 ± 3 nM.

As to `N#Cc1ccc(-c2cn(C(=O)C3CC3)oc2=O)cc1` [Compound 3h, 4-(2-(Cyclopropanecarbonyl)-5-oxo-2,5-dihydroisoxazol-4-yl)benzonitrile], the IC50 stood at 18 ± 5 nM. Under `O=C(C1CC1)n1cc(-c2ccc(C(F)(F)F)cc2)c(=O)o1` [Compound 3i, 2-(Cyclopropanecarbonyl)-4-(4-(trifluoromethyl)phenyl)isoxazol-5(2H)-one] stands 33 ± 1 nM; under `Cc1cccc(C(=O)n2cc(-c3ccccc3)c(=O)o2)c1` [Compound 4a, 2-(3-Methylbenzoyl)-4-phenylisoxazol-5(2H)-one], 46 ± 12 nM; under `Cc1ccc(-c2cn(C(=O)c3cccc(C)c3)oc2=O)cc1` [Compound 4b, 2-(3-Methylbenzoyl)-4-(p-tolyl)isoxazol-5(2H)-one], 22 ± 7 nM. In turn, `Cc1cccc(C(=O)n2cc(-c3cccc(C)c3)c(=O)o2)c1` [Compound 4c, 2-(3-Methylbenzoyl)-4-(m-tolyl)isoxazol-5(2H)-one] showed an IC50 of 31 ± 3 nM. In the case of `Cc1cccc(C(=O)n2cc(-c3ccccc3C)c(=O)o2)c1` [Compound 4d, 2-(3-Methylbenzoyl)-4-(o-tolyl)isoxazol-5(2H)-one] it was 28 ± 3 nM; in that of `Cc1cccc(C(=O)n2cc(-c3ccc(Br)cc3)c(=O)o2)c1` [Compound 4e, 4-(4-Bromophenyl)-2-(3-methylbenzoyl)isoxazol-5(2H)-one], 47 ± 7 nM. In the case of `Cc1cccc(C(=O)n2cc(-c3ccc(Cl)cc3)c(=O)o2)c1` [Compound 4f, 4-(4-Chlorophenyl)-2-(3-methylbenzoyl)isoxazol-5(2H)-one] it was 25 ± 2 nM; in that of `COc1ccc(-c2cn(C(=O)c3cccc(C)c3)oc2=O)cc1` [Compound 4g, 4-(4-Methoxyphenyl)-2-(3-methylbenzoyl)isoxazol-5(2H)-one], 23 ± 7 nM; in that of `Cc1cccc(C(=O)n2cc(-c3ccc(C#N)cc3)c(=O)o2)c1` [Compound 4h, 4-(2-(3-Methylbenzoyl)-5-oxo-2,5-dihydroisoxazol-4-yl)benzonitrile], 78 ± 2 nM. Under `Cc1cccc(C(=O)n2cc(-c3ccc(C(F)(F)F)cc3)c(=O)o2)c1` [Compound 4i, 2-(3-Methylbenzoyl)-4-(4-[trifluoromethyl]phenyl)isoxazol-5(2H)-one] stands 81 ± 28 nM.

Usually IC50 stands for the concentration at which inhibition is half-maximal.
